Experimental data taken from ChEMBL document CHEMBL1150602, “Novel diterpene lactones from Suregada multiflora” (2002).

Assays:
[1] = tested on: Saccharomyces cerevisiae; test: DNA damaging activity against DNA repair-deficient yeast RAD52 mutant assessed as drug concentration required to produce 12 mm zone of inhibition; type: functional
[2] = tested on: Saccharomyces cerevisiae; test: DNA damaging activity against DNA repair-proficient yeast RAD+ assessed as drug concentration required to produce 12 mm zone of inhibition; type: functional

Row | Structure (SMILES) | IC12 [1] | IC12 [2]
1 | CC1=C2[C@@H](O)[C@]3(O)CC[C@@H]4[C@@]5(C)C[C@H]5CC[C@@]4(C)[C@@H]3C[C@H]2OC1=O [SUREGADOLIDE A] | 35 µg/mL | 70 µg/mL
2 | COC1=C(N)C(=O)c2nc(-c3nc(C(=O)O)c(C)c(-c4ccc(OC)c(OC)c4O)c3N)ccc2C1=O [STREPTONIGRIN] | 0.4 µg/mL | > 1 µg/mL
